Laboratory results: US20070191485A1, “Active oxygen scavenging composition including citrulline” (Nara Institute of Science and Technology, priority 2001, published 2007)
Where two headings read alike, the source gives them in different places.

What was measured:
pyruvate kinase (PK) = assay: Protection of pyruvate kinase (PK) activity from injury by hydroxyl radical; format: biochemical, porcine; details: after 120 minutes (about 36% without citrulline)
Description: The ability of citrulline to protect bio-molecules, such as enzymes or nucleic acids, from hydroxyl radical was investigated. That is, investigation on the effect of hydroxyl radical exerted to enzymatic activity of pyruvate kinase (PK) was performed. Here, hydroxyl radical was generated by a system using ascorbic acid and hydrogen peroxide. The inactivation mixture contained 100 mM of Tris-HCl buffer (pH 7.4), 2.5 U of porcine PK (available from Oriental CO.), 0.2 mM of ascorbate, 0.15 mM of FeEDTA, 0.6 mM of H2O2 and citrulline at various concentrations. Then the total volume was adjusted to 250 μL. The inactivation reaction started by adding H2O2 at 25° C. and 10 μL of aliquot was sampled at constant intervals. Then residual activity of the enzyme was determined. The reaction mixture for measurement of enzymatic activity contained 80 mM of Tris-HCl buffer (pH 7.4), 7.5 mM of MgCl2, 75 mM of KCl, 3.75 mM of ADP, 0.15 mM of NADH, 10 U of porcine LDH, 0.8 mM of PEP and 10 μL of inactivated PK enzyme. The reaction started by addition of substrate at 25° C., and initial rate was measured by alteration of absorbance at 340 nm, accompanied by increase or decrease of NADH. In FIG. 5, ∘ indicates absence of citrulline, ● indicates presence of 200 mM citrulline, ▴ indicates presence of 400 mM citrulline, and ▪ indicates without generation of active oxygen, respectively.

[1] = test system: malate dehydrogenase (MDH); assay: Effect of solutes on enzymatic activity of malate dehydrogenase (MDH); format: biochemical, wild water-melon (Citrullus lanatus sp. No. 101117-1)
Description: (§1) Safety of citrulline was compared with that of arginine, by investigation of inhibition on enzymatic activities of malate dehydrogenase (MDH) and lactate dehydrogenase (LDH), caused by high concentration citrulline and arginine. Chloride ion was used as ion pair for arginine, and assay on potassium chloride was performed to evaluate effect of the chloride ion as well.
(§2) Leaf tissue derived from wild water-melon (Citrullus lanatus sp. No. 101117-1) was fractured under cooling with liquid nitrogen. Then after extraction with extraction buffer (50 mM Tris-HCl, pH=7.5, 5 mM DTT, 5 μg/ml BSA, 15% glycerol), supernatant obtained by centrifugation at 10,000 g for 5 minutes was used as crude extraction fraction of malate dehydrogenase (MDH). Pig purified authentic enzyme available from Oriental Co., was used as lactate dehydrogenase (LDH). MDH reaction solution contained 100 mM Tris-HCl pH 7.5, 150 μM NADH, 250 μM oxaloacetic acid and 10 μL of enzyme solution, and the total volume of the solution was adjusted to 1 mL. As LDH reaction solution, a mixture containing 10 mM Tris-HCl pH 7.5, 150 μM NADH, 250 μM lithium pyruvate and 10 μL of enzyme solution was used. When effect of various kinds of solutes, e.g. citrulline, on enzymatic activity is to be investigated, pH of the solution was re-adjusted to 7.5 by using KOH after addition of the solute at various concentration. The reaction started at 25° C. by addition of substrate, then initial rate was determined by alteration of absorbance at 340 nm, accompanied by decrease of NADH. Incidentally, in FIG. 2 and FIG. 3, white columns indicate the results of citrulline, black columns indicate those of arginine chloride, and hatched columns indicate those of potassium chloride, respectively.

[2] = Kinetic analysis of reaction with hydroxyl radical (competition with hydroxylation of salicylic acid); details: for Reaction rate constant (with hydroxyl radical): calculated from competitive reaction theory, mannitol as standard
Description: To evaluate ability of citrulline as an active oxygen scavenger, reaction rate between citrulline and hydroxyl radical was determined. Generation of hydroxyl radical was performed by a system using ascorbic acid and hydrogen peroxide. Here hydroxylation of salicylic acid was used as an index for radical generation. The reaction mixture contained 40 mM of K-Pi buffer, pH 7.4, 0.26 mM of ascorbate, 0.15 mM of FeEDTA, 0.6 mM of H2O2, 2 mM of salicylate and various compatible solutes, then the total volume was adjusted to 400 μL. After reaction at 25° C. for 90 minutes, reaction product of salicylic acid and a hydroxyl radical (namely, 2,3-dihydroxybenzoic acid) was altered to its chromogenic derivative. Then it was determined by absorbance at 510 nm. As the result, the secondary reaction rate constant on reaction of citrulline and hydroxyl radical was calculated from competitive reaction theory. As the standard reaction rate constant, a reported value of mannitol (1.7×10^9 M^−1 s^−1) was used.
The secondary reaction rate constants between the solutes and hydroxyl radical were roughly calculated.

[3] = test system: lactate dehydrogenase (LDH); assay: Effect of solutes on enzymatic activity of lactate dehydrogenase (LDH); format: biochemical, Pig
Description: as §1, §2

circular plasmid DNA = assay: Protection of circular plasmid DNA from injury by hydroxyl radical (agarose gel electrophoresis); details: after 2 hours
Description: Moreover, the effect of citrulline to prevent DNA from active oxygen injury was investigated. A solution containing 200 ng of circular plasmid DNA and various concentrations of citrulline was prepared and hydroxyl radical was generated by addition of 3 mM of H2O2 and 0.01 mM of FeEDTA. Then injury exerted on DNA was evaluated by agarose gel electrophoresis after 2 hours. The results were shown in FIG. 6 and lanes 1 to 7 indicated following experimental systems, respectively. In FIG. 6, lane 1 indicates molecular marker for electrophoresis. Lane 2 indicates a result untreated plasmid DNA. Lane 3 indicates a result from an experimental system wherein trivalent iron is added solely. Lane 4 indicates a result from an experimental system wherein hydroxyl radical was generated by addition of trivalent iron and hydrogen peroxide. Lane 5 indicates a result from an experimental system wherein 50 mM of citrulline was added to the system of lane 4 (the system with generation of active oxygen) to eliminate the generated active oxygen. Lane 6 indicates a result from an experimental system wherein 100 mM of citrulline was added to the system of lane 4 (the system with generation of active oxygen) to eliminate the generated active oxygen. Lane 7 indicates a result from an experimental system wherein 200 mM of citrulline was added to the system of lane 4 (the system with generation of active oxygen) to eliminate the generated active oxygen.

[4] = reported value used as the standard for calculation, cited from earlier work

## NC(=O)NCCC[C@H](N)C(=O)O [Citrulline, citrulline]
Pyruvate kinase (PK); 200 mM citrulline
  residual activity of PK, % of the initial activity: 61%
Pyruvate kinase (PK); 400 mM citrulline
  residual activity of PK, % of the initial activity: 74%
[1]; high concentration of solute
  inhibitory effect on malate dehydrogenase (MDH): did not cause any inhibitory effect
[1]; in the presence of 200 mM
  MDH activity, % of control: about 109%
[2]
  Reaction rate constant (with hydroxyl radical): 2.9e+09 M⁻¹ s⁻¹
[2]; compared with glycinebetaine, proline, mannitol
  potency as a scavenger of hydroxyl radical (FIG. 4): most significant among the four compatible solutes
[2]; roughly calculated
  calculated ID50 value (secondary reaction rate constant with hydroxyl radical): about 3×10^9 M^−1 s^−1
[3]; high concentration of solute
  inhibitory effect on lactate dehydrogenase (LDH) activity: not significant
[3]; in the presence of 600 mM
  decrease of LDH enzymatic activity: about 10%
Circular plasmid DNA; 50 mM citrulline (Lane 5)
  abscission of DNA: markedly reduced
Circular plasmid DNA; 100 mM citrulline (Lane 6)
  abscission of DNA: markedly reduced
Circular plasmid DNA; 200 mM citrulline (Lane 7)
  abscission of DNA: markedly reduced

## [Cl-].[K+] [potassium chloride, reference compound]
[1]; in the presence of 600 mM
  MDH enzymatic activity, % of the control activity: 21%
[3]; in the presence of 600 mM
  LDH enzymatic activity, % of the control activity: 64%

## O=C(O)c1ccccc1O [Salicylic acid, salicylic acid, reference compound]
[2]
  Reaction rate constant (with hydroxyl radical): 6.3e+09 M⁻¹ s⁻¹

## O=C(O)[C@@H]1CCCN1 [Proline, proline, reference compound]
[2]
  Reaction rate constant (with hydroxyl radical): 3e+08 M⁻¹ s⁻¹

## C[N+](C)(C)CC(=O)O [Glycinebetain, glycinebetaine, reference compound]
[2]
  Reaction rate constant (with hydroxyl radical): 2.1e+07 M⁻¹ s⁻¹

## OC[C@@H](O)[C@@H](O)[C@H](O)[C@H](O)CO [Mannitol, mannitol]
[4]
  Reaction rate constant (with hydroxyl radical), reported standard value: 1.7e+09 M⁻¹ s⁻¹
[4]; listed as mannitol
  Reaction rate constant (with hydroxyl radical), reported standard value: 1.7e+09 M⁻¹ s⁻¹
